# Values of other authors, collected in patent US20210401795A1, “Compressible Cannabinoid Pharmaceutical Composition” (Imbucanna, Inc., priority 2019, published 2021).
# Tests used:
# [1] = pure CBD, twice-daily dosages, pediatric patients; ranging from total seizure freedom to the stated reductions
# [2] = not given; remark: listed apart in the source
SMILES,seizure reduction [1],solubility in water,duration of appetite stimulant effect ([2]; after administration),duration of action for psychoactive effects ([2]; after oral administration),onset of action ([2]; after oral administration),peak effect ([2]; after oral administration)
"C=C(C)[C@@H]1CCC(C)=C[C@H]1c1c(O)cc(CCCCC)cc1O [CBD, cannabidiol]",25-80%,poorly soluble in water,,,,
"CCCCCc1cc(O)c2c(c1)OC(C)(C)[C@@H]1CCC(C)=C[C@@H]21 [Dronabinol, (−)-trans-Δ^9-tetrahydrocannabinol]",,,≥ 24 h,4 to 6 h,0.5 to 1 h,2 to 4 h
